Test: thermodynamic stability of the polymorphic crystalline forms of Fasidotril
Format: physicochemical
Source text: It has been discovered that Fasidotril can exist in various polymorphic crystalline forms which differ from each other in their physical and spectroscopic properties, their zones of thermodynamic stability and their methods of preparation. Four of these novel forms are described below and will be designated as form I, form II, form III and form IV, respectively.
It is shown that among these four forms, forms I and II are stable at low and high temperature, respectively, while forms III and IV are unstable and can be easily converted to the stable form I or II depending on the operating conditions chosen.
It is also shown that it is possible to convert form I to form II and to convert form II to form I depending on the operating conditions chosen.

## CC(=O)SC[C@@H](Cc1ccc2c(c1)OCO2)C(=O)N[C@@H](C)C(=O)OCc1ccccc1 [form I, benzyl (S,S)-2-(2-acetylsulphanylmethyl-3-benzo[1,3]dioxol-5-ylpropionylamino)propionate]
At low temperature
  stability of the polymorphic form: stable

## CC(=O)SC[C@@H](Cc1ccc2c(c1)OCO2)C(=O)N[C@@H](C)C(=O)OCc1ccccc1 [form III, benzyl (S,S)-2-(2-acetylsulphanylmethyl-3-benzo[1,3]dioxol-5-ylpropionylamino)propionate]
Can be easily converted to the stable form I or II depending on the operating conditions
  stability of the polymorphic form: unstable

## CC(=O)SC[C@@H](Cc1ccc2c(c1)OCO2)C(=O)N[C@@H](C)C(=O)OCc1ccccc1 [form II, benzyl (S,S)-2-(2-acetylsulphanylmethyl-3-benzo[1,3]dioxol-5-ylpropionylamino)propionate]
At high temperature
  stability of the polymorphic form: stable

— US6767921B2, “Polymorphic forms of fasidotril, their methods of preparation and pharmaceutical compositions comprising them” (Bioproject, priority 2002, dated 2004)
